Assay results from patent publication US6770747B1, “Genes encoding protein having activity of transferring sugar onto aurone” (Suntory Limited, priority 1999, dated 2004).
“Also recorded” adds a separate entry of the source.

What was measured:
[1] = system: product of the pS.b UFGT1 gene; conditions: substrate baicalein; cited from earlier work
[2] = target: T1, flavonoid-3-glycosyl transferase derived from grapes (Vitis vinifera, UniProt P51094); conditions: substance used as substrate; activity determined in E. coli; cited from earlier work
T1 construct: host or cells: E. coli
T1 sequence (P51094 1-456): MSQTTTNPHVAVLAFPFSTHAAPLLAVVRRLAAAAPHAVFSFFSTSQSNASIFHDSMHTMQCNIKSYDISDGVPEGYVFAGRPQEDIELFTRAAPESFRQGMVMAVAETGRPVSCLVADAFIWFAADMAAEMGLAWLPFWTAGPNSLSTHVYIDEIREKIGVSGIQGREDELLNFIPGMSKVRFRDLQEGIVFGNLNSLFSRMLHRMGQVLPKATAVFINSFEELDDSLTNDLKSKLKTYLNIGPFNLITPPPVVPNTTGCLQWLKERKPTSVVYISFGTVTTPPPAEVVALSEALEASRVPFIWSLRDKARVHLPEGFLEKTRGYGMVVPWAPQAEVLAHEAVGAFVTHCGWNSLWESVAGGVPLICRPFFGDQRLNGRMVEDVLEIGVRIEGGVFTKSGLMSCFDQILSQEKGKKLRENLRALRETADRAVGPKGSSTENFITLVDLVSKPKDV

[3] = target: T2, flavonoid-3-glycosyl transferase derived from gentians (Gentiana triflora, UniProt Q96493); conditions: substance used as substrate; enzyme expressed in E coli; cited from earlier work
T2 construct: host or cells: E. coli
T2 sequence (Q96493 1-453): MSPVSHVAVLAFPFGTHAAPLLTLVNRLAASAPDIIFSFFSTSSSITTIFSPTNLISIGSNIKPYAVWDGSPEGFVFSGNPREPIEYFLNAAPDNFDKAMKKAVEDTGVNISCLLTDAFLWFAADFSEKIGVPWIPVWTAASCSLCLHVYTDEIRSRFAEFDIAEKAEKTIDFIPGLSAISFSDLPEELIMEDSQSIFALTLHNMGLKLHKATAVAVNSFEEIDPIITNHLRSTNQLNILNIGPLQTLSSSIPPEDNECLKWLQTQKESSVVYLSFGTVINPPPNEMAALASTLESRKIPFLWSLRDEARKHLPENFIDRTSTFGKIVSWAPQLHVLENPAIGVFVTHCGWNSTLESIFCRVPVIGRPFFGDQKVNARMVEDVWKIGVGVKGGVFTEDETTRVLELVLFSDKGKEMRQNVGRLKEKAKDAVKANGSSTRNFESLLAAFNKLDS

[4] = system: Ph7GTb; test: Glycosyl transferase activity of Ph7GTb cDNA recombinant protein; format: biochemical, petunia (Petunia hybrida); conditions: crude extract, UDP-glucose, HPLC, as in Example 1
Description: (§1) To 50 μl of the crude enzyme solution were added 0.1 M Tris-HCl, pH 8.0, and 150 μl of 0.05% 2-ME, and then incubated at 30° C. for 10 minutes. Then 5 μl of 4.66 mM aureusidin and 50 μl of 5 mM UDP-glucose were added thereto, and was allowed to react at 30° C. for 1 hour. After the reaction was stopped by adding 200 μl of 90% acetonitrile containing 5% trifluoroacetic acid (TFA), it was centrifuged at 15,000 rpm and 4° C. for 3 minutes. The supernatant thus obtained was filtered (pore size 0.45 μm, 4 mm Millex-LH, Millipore) to remove insoluble substances. The filtrate was analyzed by high performance liquid chromatography.
(§2) The analytical condition was as follows: The column used was Asahipak-ODP-50 (4.6 mm φ×250 mm, Showa Denko). The mobile phase comprised water containing 0.1% TFA as solution A and 90% CH3CN containing 0.1% TFA as solution B. After a linear gradient from 20% solution B to 100% solution B for 20 minutes, 100% solution B was retained for 5 minutes. The flow rate was 0.6 ml/min. Detection used A380 nm, and an absorption spectrum at 250-400 nm using Shimadzu PDA detector SPD-M6A.
(§3) The transformants obtained in Example 8 were cultured, extracted and the enzymatic activity was measured as in Example 1. The enzymatic activity was measured using aureusidin as the substrate. […]

[5] = system: Ph7GTa; test: Glycosyl transferase activity of Ph7GTa cDNA recombinant protein; format: biochemical, petunia (Petunia hybrida); conditions: crude extract, UDP-glucose, HPLC, as in Example 1
Description: as §1, §2, §3

[6] = system: product of the pS.b UFGT1 gene; test: Glycosyl transferase activity of pS.b UFGT1 gene product (crude E. coli extract, UDP-glucose, HPLC); format: biochemical, Scutellaria baicalensis; conditions: crude enzyme solution, 30° C., HPLC detection of glycosides
Description: The activity of the pS.b UFGT1 gene derived from Scutellaria baicalensis of transferring a glycosyl group to aurones was determined using an expression vector pESBGT-1 in E. coli prepared by the following method.
The PCR product was digested with NdeI and BamHI, and then was ligated to the NdeI- and BamHI-digested pET-3a vector (Stratagene) to construct pESBGT-1 (FIG. 1). Using each of pESBGT-1 and pET-3a vector, it was transformed into Epicurian Coli BL21 (DE3) (Stratagene). The transformants were incubated overnight at 37° C. in 3 ml of a LB medium containing 50 μg/ml of ampicillin. The preculture (500 μl) was added to 50 ml of a LB medium containing 50 μg/ml of ampicillin, and cultured until A600 reached 0.6-1.0. Then isopropyl-β-D-thiogalactopyranoside (IPTG) was added thereto to a final concentration of 0.5 mM, which was cultured at 28° C. for 4 hours and centrifuged (5000 rpm, 10 minutes, 4° C.) to collect the cells.
The pellets were suspended in 5 ml of the buffer (10 mM sodium phosphate, pH 6.5, 1 mM β-mercaptoethanol (2-ME)). After the E. coli cells were disrupted by a sonicator, it was centrifuged (15,000 rpm, 5 minutes, […]), and the supernatant obtained was used as a crude enzyme solution for the next enzyme reaction.
In addition to aureusidin, the enzymatic activity was determined using naringenin or luteolin as the substrate.
To 50 μl of the crude enzyme solution were added 0.1 M Tris-HCl, pH 8.0, and 150 μl of 0.05% 2-ME, and then incubated at 30° C. for 10 minutes. Then 5 μl of 4.66 mM aureusidin and 50 μl of 5 mM UDP-glucose were added thereto, and was allowed to react at 30° C. for 1 hour. […] The filtrate was analyzed by high performance liquid chromatography. […]
To 20 μl of the crude enzyme solution were added 25 μl of 0.1 M citric acid-phosphate buffer, pH 6.5, 5 μl each of 5 μM substrate, and 25 μl of 5 mM UDP-glucose in a total volume of 250 μl, and then incubated at 30° C. for 30 minutes. […] The filtrate was analyzed by high performance liquid chromatography. […]

[7] = system: AmGT1; test: Glycosyl transferase activity of the AmGT1 cDNA recombinant protein; format: biochemical, snapdragons (Antirrhinum majus); conditions: crude extract, UDP-glucose, HPLC, as in Example 1
Description: as §1, §2
The transformant obtained in Example 4 was cultured, extracted and the enzymatic activity was measured as in Example 1.

Molecule | glycosyl transferase activity relative to a 100% activity to delphinidins [3] [%] | glycosilation of the substrate by the pS.b UFGT1 product [6] | also measured
O=c1cc(-c2ccccc2)oc2cc(O)c(O)c(O)c12 [baicalein] |  |  | portion detected as 7 glycoside after the reaction is complete [1]: ~100%
O=c1c(O)c(-c2ccc(O)c(O)c2)oc2cc(O)cc(O)c12 [quercetin] | 6.5 |  | Km [2]: 15 µM; Vmax [2]: 18.9 nkatals/mg
pelargonidins | 38 |  | 
delphinidins | 100 |  | 
cyanidins | 61 |  | Km [2]: 30 µM; Vmax [2]: 905 nkatals/mg
O=C1/C(=C/c2ccc(O)c(O)c2)Oc2cc(O)cc(O)c21 [aureusidin] |  | can glycosilate | glycosilation of the substrate by Ph7GTb [4]: activity of glycosilating; glycosilation of the substrate by Ph7GTa [5]: activity of glycosilating; glycosyl transfer to the substrate by AmGT1 [7]: can transfer a glycosyl group to the positions 6 and 4
O=c1c(O)c(-c2cc(O)c(O)c(O)c2)oc2cc(O)cc(O)c12 [myricetin] | 4.4 |  | 
O=c1cc(-c2ccc(O)c(O)c2)oc2cc(O)cc(O)c12 [luteolin] |  | can glycosilate | 
O=C1C[C@@H](c2ccc(O)cc2)Oc2cc(O)cc(O)c21 [naringenin] |  | very little effect; also recorded: no reaction occurred | 
O=c1c(O)c(-c2ccc(O)cc2)oc2cc(O)cc(O)c12 [kaempferol] | 7.0 |  | 
